Reference: PubChem BioAssay AID1963430 (Molecular Pharmacology Branch, DTP, NCI, 2024)

System: 521955-158-R2-J5-PDC complex spheroid growth, % test/control
Test: Anticancer human tumor 521955-158-R2-J5-PDC patient-derived pancreatic carcinoma cell line growth inhibition [Asc]
Settings: for IC50: curve of first compound; for viability, T/C: stronger effect = lower value
Description: Multicellular complex tumor spheroid response to apoptosis pathway targeting inhibitors Alrizomadlin, Pelcitoclax, and Dasminapant in combination with a variety of drugs and investigational agents in selected tumor cell lines
The MDM2 inhibitor alrizomadlin, the Bcl-2/Bcl-xL inhibitor pelcitoclax, and the IAPs inhibitor dasminapant were evaluated both individually and in combination with standard of care and investigational anticancer small molecules within a complex spheroid model of solid tumors. . Complex spheroids include a stromal component modeled by human endothelial cells (HUVEC) and fibroblasts modeled by human mesenchymal stem cells (MSCs). The concentration ranges selected for each drug and investigational agent were based upon clinically achievable concentrations if the clinical Cmax of the agent was known.
Compounds. The drugs and investigational agents: alrizomadlin (APG-115; NSC831270), pelcitoclax (APG-1252; NSC835773), dasminapant (APG-1387;NSC834197), TAK-243 (NSC785004), copanlisib (NSC809693), olaparib (NSC753686), talazoparib (NSC767125), cobimetinib (NSC 768068), eltanexor (KPT-8602, NSC 794443), abemaciclib (NSC 768073), sotorasib (NSC818433), adagrasib (NSC 831453), MRTX-1133 (NSC 836407), Iadademestat (ORY1001, NSC 806812), and RMC-4630 (NSC839698), were obtained from the NCI Developmental Therapeutics Program Chemical Repository. The FDA-approved anticancer drug set is available from the Developmental Therapeutics Program at https://dtp.cancer.gov/organization/dscb/obtaining/available plates.htm. […] The stock solutions were prepared in dimethyl sulfoxide (DMSO, Sigma-Aldrich, St. Louis, MO, cat. D2650) at 800-fold the tested concentration and stored at -70 degrees C prior to their use. All drugs and investigational agents were tested over a range starting from a high concentration at or near the clinical Cmax and decreasing in half-log increments. If the clinical Cmax for an agent had not been determined, the highest concentration tested was 10 microM.
The patient-derived cancer (PDC) cell lines include five colon adenocarcinomas: 186277-243-T-J2-PDC, 616215-338-R-J1-PDC, 439559-082-T-J2-PDC, 463943-066-T-J2-PDC, and 519858-162-T-J1-PDC; three pancreatic carcinomas: 323965-272-R-J2-PDC, 521955-158-R6-J3-PDC, and 521955-158-R2-J5-PDC; two uterine sarcomas: 327498-152-R-J2-PDC and 993429-296-R-J1-PDC; two rhabdomyosarcomas: 755483-174-R-J1-PDC and 772245-204-R-J1-PDC; two soft tissue sarcomas: 126254-015-R-J1-PDC and 494315-158-R-J1-PDC; two malignant fibrous histiocytomas: 317291-083-R-J1-PDC and 596521-263-R-J1-PDC; two breast carcinomas: 171881-019-R-J1-PDC and 885512-296-R-J2-PDC; and one ovarian carcinoma: 6556581-035-R-J-PDC were obtained from the NCI PDMR, (https://pdmr.cancer.gov). The established cell lines HSSY-2 synovial sarcoma (RRID:CVCL 8719), SYO-1 synovial sarcoma (RRID:CVCL_7146), MPNST malignant peripheral neural sheath tumor were obtained from the Sloan Kettering Institute. The following established cell lines were purchased from the American Type Culture Collection (ATCC, Manassas, VA), Sor the received from the NCI repository:, PANC-1 pancreatic carcinoma (CRL-1469, RRID:CVCL_0480), OVCAR-5 ovarian carcinoma (RRID:CVCL_1628), OVCAR-8 ovarian carcinoma (RRID:CVCL_1629), , MCF-7 breast carcinoma (CRL-12584, RRID:CVCL_0031), MDA-MB-231 breast carcinoma (CRL-12532, RRID:CVCL_0062), NCI-H1876 small cell lung carcinoma (CRL-5902, RRID:CVCL_1503), NCI-H510A small cell lung carcinoma (HTB-184, RRID:CVCL_1565), NCI-H1417 (CRL-5869, RRID:CVCL_1469), and NCI-H196 small cell lung carcinoma (CRL-5823, RRID:CVCL_1509). Dr. Peter Houghton (Greehey Children's Cancer Research Institute, University of Texas Health Science Center, San Antonio, TX) provided Rh-18 rhabdomyosarcoma (RRID:CVCL_1659). Pooled donor human umbilical vein endothelial cells (HUVEC, Lonza, cat. CC-2519) and human mesenchymal stem cells (hMSC, Lonza, cat. PT-2501) were purchased from Lonza (Walkersville, MD).
Cell Culture. […]
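Further: spheroids exposed to agents for 7 days before readout.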
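Wherever viability, T/C is given: 100% = DMSO vehicle control viability.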

CCN1CCN(Cc2ccc(Nc3ncc(F)c(-c4cc(F)c5nc(C)n(C(C)C)c5c4)n3)nc2)CC1 + Cc1c(S(C)(=O)=O)c(-c2cc(F)cc(N3CCN(c4ccc(NS(=O)(=O)c5ccc(NC(CCN6CCC(C(=O)OCCCP(=O)(O)O)CC6)CSc6ccccc6)c(S(=O)(=O)C(F)(F)F)c5)cc4)CC3)c2)c(-c2ccc(Cl)cc2)n1C(C)C
IC50 (second compound 0.1 µM): 0.00316 µM
IC50 (second compound 0.316 µM): 0.00316 µM
IC50 (second compound 1 µM): > 1 µM
IC50 (second compound 3.16 µM): > 1 µM
IC50 (second compound 10 µM): > 1 µM
viability, T/C (second compound 0.1 µM, first compound 0.00316 µM): 86.2%
viability, T/C (second compound 0.1 µM, first compound 0.01 µM): 34.5%
viability, T/C (second compound 0.1 µM, first compound 0.0316 µM): 42.2%
viability, T/C (second compound 0.1 µM, first compound 0.1 µM): 48.3%
viability, T/C (second compound 0.1 µM, first compound 0.316 µM): 73%
viability, T/C (second compound 0.1 µM, first compound 1 µM): 87.6%
viability, T/C (second compound 0.316 µM, first compound 0.00316 µM): 69%
viability, T/C (second compound 0.316 µM, first compound 0.01 µM): 61%
viability, T/C (second compound 0.316 µM, first compound 0.0316 µM): 41.4%
viability, T/C (second compound 0.316 µM, first compound 0.1 µM): 46.5%
viability, T/C (second compound 0.316 µM, first compound 0.316 µM): 77.7%
viability, T/C (second compound 0.316 µM, first compound 1 µM): 92.8%
viability, T/C (second compound 1 µM, first compound 0.00316 µM): 77.5%
viability, T/C (second compound 1 µM, first compound 0.01 µM): 56.5%
viability, T/C (second compound 1 µM, first compound 0.0316 µM): 59.6%
viability, T/C (second compound 1 µM, first compound 0.1 µM): 50.7%
viability, T/C (second compound 1 µM, first compound 0.316 µM): 65.6%
viability, T/C (second compound 1 µM, first compound 1 µM): 114%
viability, T/C (second compound 3.16 µM, first compound 0.00316 µM): 58%
viability, T/C (second compound 3.16 µM, first compound 0.01 µM): 50.1%
viability, T/C (second compound 3.16 µM, first compound 0.0316 µM): 43.8%
viability, T/C (second compound 3.16 µM, first compound 0.1 µM): 61.4%
viability, T/C (second compound 3.16 µM, first compound 0.316 µM): 74.3%
viability, T/C (second compound 3.16 µM, first compound 1 µM): 88.4%
viability, T/C (second compound 10 µM, first compound 0.00316 µM): 171%
viability, T/C (second compound 10 µM, first compound 0.01 µM): 111%
viability, T/C (second compound 10 µM, first compound 0.0316 µM): 120%
viability, T/C (second compound 10 µM, first compound 0.1 µM): 179%
viability, T/C (second compound 10 µM, first compound 0.316 µM): 162%
viability, T/C (second compound 10 µM, first compound 1 µM): 142%

O=C(c1ccc(F)c(F)c1Nc1ccc(I)cc1F)N1CC(O)([C@@H]2CCCCN2)C1 + CCN1C(C(=O)NC23CCC(C(=O)O)(CC2)CC3)C(c2cccc(Cl)c2F)C2(C(=O)Nc3cc(Cl)ccc32)C12CCCCC2
IC50 (second compound 0.03 µM): 0.077 µM
IC50 (second compound 0.0949 µM): 0.0394 µM
IC50 (second compound 0.3 µM): 0.165 µM
IC50 (second compound 0.949 µM): 0.156 µM
IC50 (second compound 3 µM): 0.62 µM
viability, T/C (second compound 0.03 µM, first compound 0.00316 µM): 65.8%
viability, T/C (second compound 0.03 µM, first compound 0.01 µM): 56%
viability, T/C (second compound 0.03 µM, first compound 0.0316 µM): 62.5%
viability, T/C (second compound 0.03 µM, first compound 0.1 µM): 45.1%
viability, T/C (second compound 0.03 µM, first compound 0.316 µM): 37.2%
viability, T/C (second compound 0.03 µM, first compound 1 µM): 29.1%
viability, T/C (second compound 0.0949 µM, first compound 0.00316 µM): 80.7%
viability, T/C (second compound 0.0949 µM, first compound 0.01 µM): 80.1%
viability, T/C (second compound 0.0949 µM, first compound 0.0316 µM): 51.1%
viability, T/C (second compound 0.0949 µM, first compound 0.1 µM): 51.7%
viability, T/C (second compound 0.0949 µM, first compound 0.316 µM): 43.1%
viability, T/C (second compound 0.0949 µM, first compound 1 µM): 35.4%
viability, T/C (second compound 0.3 µM, first compound 0.00316 µM): 64.5%
viability, T/C (second compound 0.3 µM, first compound 0.01 µM): 83.3%
viability, T/C (second compound 0.3 µM, first compound 0.0316 µM): 85.2%
viability, T/C (second compound 0.3 µM, first compound 0.1 µM): 60%
viability, T/C (second compound 0.3 µM, first compound 0.316 µM): 40.9%
viability, T/C (second compound 0.3 µM, first compound 1 µM): 33.1%
viability, T/C (second compound 0.949 µM, first compound 0.00316 µM): 93.3%
viability, T/C (second compound 0.949 µM, first compound 0.01 µM): 91.3%
viability, T/C (second compound 0.949 µM, first compound 0.0316 µM): 82.4%
viability, T/C (second compound 0.949 µM, first compound 0.1 µM): 57.3%
viability, T/C (second compound 0.949 µM, first compound 0.316 µM): 37.8%
viability, T/C (second compound 0.949 µM, first compound 1 µM): 38.1%
viability, T/C (second compound 3 µM, first compound 0.00316 µM): 107%
viability, T/C (second compound 3 µM, first compound 0.01 µM): 102%
viability, T/C (second compound 3 µM, first compound 0.0316 µM): 80%
viability, T/C (second compound 3 µM, first compound 0.1 µM): 71.8%
viability, T/C (second compound 3 µM, first compound 0.316 µM): 61.8%
viability, T/C (second compound 3 µM, first compound 1 µM): 42.5%
